Consider 18 compounds from patent US7208500B2, “Thienopyridine-phenylacetamides and their derivatives useful as new anti-angiogenic agents” (Agouron Pharmaceuticals, Inc., priority 2003, dated 2007).

In assay [1] the target is T1, FGF-R1 intracellular kinase domain (Homo sapiens, UniProt P11362, C488A/C584S/L457V).
T1 construct: starting from the endogenous methionine residue 456 to glutamate 766; made in house; host or cells: baculovirus vector expression system
Kind of assay: FGF-R spectrophotometric assay. It is filed as biochemical. Conditions: 50 nM test compound; read-out: FGF-P (% inh @ 50 nM). The protocol:
The intracellular kinase domain of human FGF-R1 was expressed using the baculovirus vector expression system starting from the endogenous methionine residue 456 to glutamate 766, according to the residue numbering system of Mohammadi et al., Mol. Cell. Biol., 16, 977–989 (1996). In addition, the construct also has the following 3 amino acid substitutions: L457V, C488A, and C584S.
The spectrophotometric assay was carried out as described above for VEGF-R2, except for the following changes in concentration: FGF-R=50 nM, ATP=2 mM, and poly(E4Y1)=15 mM.

The test system of assay [2] is human umbilical vein endothelial cells (HUVEC). Briefly: HUVEC + VEGF proliferation assay. The following applies: VEGF-stimulated proliferation, final VEGF 6 ng/mL, 72 hours, MTT. It is filed as cell-based. How it is done:
This assay determines the ability of a test compound to inhibit the growth factor-stimulated proliferation of human umbilical vein endothelial cells (“HUVEC”). HUVEC cells (passage 3–4, Clonetics, Corp.) were thawed into EGM2 culture medium (Clonetics Corp) in T75 flasks. Fresh EGM2 medium was added to the flasks 24 hours later. Four or five days later, cells were exposed to another culture medium (F12K medium supplemented with 10% fetal bovine serum (FBS), […] endothelial cell growth supplement (ECGS), and 0.1 mg/mL heparin). Exponentially-growing HUVEC cells were used in experiments thereafter. Ten to twelve thousand HUVEC cells were plated in 96-well dishes in […] of rich, culture medium (described above). The cells were allowed to attach for 24 hours in this medium. The medium was then removed by aspiration and […] of starvation media (F12K+1% FBS) was added to each well. After 24 hours, […] of test agent dissolved in 1% DMSO in starvation medium or this vehicle alone was added into each treatment well; the final DMSO concentration was 0.1%. One hour later, […] of VEGF (30 ng/mL) in starvation media was added to all wells except those containing untreated controls; the final VEGF concentration was 6 ng/mL. Cellular proliferation was quantified 72 hours later by MTT dye reduction, at which time cells were exposed for 4 hours MTT (Promega Corp.). Dye reduction was stopped by addition of a stop solution (Promega Corp.) and absorbance at 595 nm was determined on a 96-well spectrophotometer plate reader.

The target in assay [3] is T2, unphosphorylated VEGF-R2D50 (FLVK), cytosolic domain of human VEGF-R2 (Homo sapiens, UniProt P35968, DEL940-989/E990V).
T2 construct: VEGF-R2D50 contains residues 806–939 and 990–1171; made in house; host or cells: baculovirus/insect cell system
Kind of assay: VEGF-R2 coupled spectrophotometric assay (FLVK). It is filed as biochemical. The text has this: This construct determines the ability of a test compound to inhibit tyrosine kinase activity. A construct (VEGF-R2D50) of the cytosolic domain of human vascular endothelial growth factor receptor 2 (VEGF-R2) lacking the 50 central residues of the 68 residues of the kinase insert domain was expressed in a baculovirus/insect cell system. Of the 1356 residues of full-length VEGF-R2, VEGF-R2D50 contains residues 806–939 and 990–1171, and also one point mutation (E990V) within the kinase insert domain relative to wild-type VEGF-R2. Autophosphorylation of the purified construct was performed by incubation of the enzyme at a concentration of […] in the presence of 3 mM ATP and 40 mM MgCl2 in 100 mM HEPES, pH 7.5, containing 5% glycerol and 5 mM DTT, at 4° C. for 2 h. […] See Parast et al., Biochemistry, 37, 16788–16801 (1998).
The production of ADP from ATP that accompanies phosphoryl transfer was coupled to oxidation of NADH using phosphoenolpyruvate (PEP) and a system having pyruvate kinase (PK) and lactic dehydrogenase (LDH). The oxidation of NADH was monitored by following the decrease of absorbance at 340 nm (e340=6.22 cm^−1 mM^−1) using a Beckman DU 650 spectrophotometer. Assay conditions for phosphorylated VEGF-R2D50 (indicated as FLVK-P in the tables below) were the following: 1 mM PEP; […]; 50 units of LDH/mL; 20 units of PK/mL; 5 mM DTT; 5.1 mM poly(E4Y1); 1 mM ATP; and 25 mM MgCl2 in 200 mM HEPES, pH 7.5. Assay conditions for unphosphorylated VEGF-R2D50 (indicated as FLVK in the tables) were the following: 1 mM PEP; […]; 50 units of LDH/mL; 20 units of PK/mL; 5 mM DTT; 20 mM poly(E4Y1); 3 mM ATP; and 60 mM MgCl2 and 2 mM MnCl2 in 200 mM HEPES, pH 7.5. Assays were initiated with 5 to 40 nM of enzyme. Ki values were determined by measuring enzyme activity in the presence of varying concentrations of test compounds. The percent inhibition at 50 nm (% inhibition@50 nm) was determined by linear least-squares regression analysis of absorpbance as a function of time. The binding inhibitions were fitted to equation as described by Morrison. The data were analyzed using Enzyme Kinetic and Kaleidagraph software.

Structures are written as SMILES.

T1 sequence (P11362 456-766 L457V/C488A/C584S): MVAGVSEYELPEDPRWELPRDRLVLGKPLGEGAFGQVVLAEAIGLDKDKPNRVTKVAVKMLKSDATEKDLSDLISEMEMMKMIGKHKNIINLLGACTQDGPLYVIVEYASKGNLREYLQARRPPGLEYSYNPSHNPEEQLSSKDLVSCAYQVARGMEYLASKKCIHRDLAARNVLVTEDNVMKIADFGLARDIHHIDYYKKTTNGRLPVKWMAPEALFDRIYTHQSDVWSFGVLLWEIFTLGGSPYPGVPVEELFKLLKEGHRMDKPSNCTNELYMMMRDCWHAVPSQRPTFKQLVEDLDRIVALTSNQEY
T2 sequence (P35968 with tags, fused parts or gaps DEL940-989/E990V limits assumed): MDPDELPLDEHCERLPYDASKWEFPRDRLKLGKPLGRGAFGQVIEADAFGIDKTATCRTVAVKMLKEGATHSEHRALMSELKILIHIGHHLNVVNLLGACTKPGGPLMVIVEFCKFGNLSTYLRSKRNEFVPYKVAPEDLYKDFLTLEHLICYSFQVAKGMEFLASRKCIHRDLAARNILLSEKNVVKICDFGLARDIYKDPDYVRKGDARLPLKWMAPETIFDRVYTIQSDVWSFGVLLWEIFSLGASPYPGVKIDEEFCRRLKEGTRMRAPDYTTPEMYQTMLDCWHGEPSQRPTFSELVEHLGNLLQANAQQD

For the compound `Cc1cc(C)nc(NC(=O)Cc2ccc(Oc3ccnc4cc(C(=O)N5C[C@@H](O)[C@@H](O)C5)sc34)cc2)c1` [Example 3], in assay [1], the inhibition at 0.05 µM lay in the range of 0 to 5%. Moreover, the half-inhibitory concentration (IC50) (in general, the concentration that gives 50% inhibition) in assay [2] is less than 1 nM.

Turning to `Cc1cc(C)nc(NC(=O)Cc2ccc(Oc3ccnc4cc(C(=O)N5CC[C@@H](N(C)C)C5)sc34)cc2)c1` [Example 4, 2-{4-[2-((R)-3-Dimethylamino-pyrrolidine-1-carbonyl)-thieno[3,2-b]pyridin-7-yloxy]-phenyl}-N-(4,6-dimethyl-pyridin-2-yl)-acetamide], the Ki (as a rule, the equilibrium dissociation constant of an inhibitor or competing ligand from its target) in assay [3] is less than 1 nM. Moreover, the inhibition at 0.05 µM in assay [1] fell in the range of 5 to 10%. Moreover, the IC50 in assay [2] was in the range of 1 to 10 nM.

The compound `Cc1cc(C)nc(NC(=O)Cc2ccc(Oc3ccnc4cc(C(=O)N(C)CCN(C)C)sc34)cc2)c1` [Example 6, 7-{4-[(4,6-Dimethyl-pyridin-2-ylcarbamoyl)-methyl]-phenoxy}-thieno[3,2-b]pyridine-2-carboxylic acid (2-dimethylamino-ethyl)-methyl-amide] registered a Ki in assay [3] of less than 1 nM. In addition, the inhibition at 0.05 µM in assay [1] fell in the range of 5 to 10%. In addition, the IC50 in assay [2] is more than 10 nM.

In the case of `Cc1cc(C)nc(NC(=O)Cc2ccc(Oc3ccnc4cc(C(=O)N(C)C)sc34)cc2)c1` [Example 7, 7-{4-[(4,6-Dimethyl-pyridin-2-ylcarbamoyl)-methyl]-phenoxy}-thieno[3,2-b]pyridine-2-carboxylic acid dimethylamide], the Ki in assay [3] is less than 1 nM. Further, the inhibition at 0.05 µM in assay [1] lay in the range of 5 to 10%. The IC50 in assay [2] was less than 1 nM.

`CN(C)C(=O)c1cc2nccc(Oc3ccc(CC(=O)Nc4ccc(Cl)cn4)cc3)c2s1` [Example 8, 7-{4-[(5-Chloro-pyridin-2-ylcarbamoyl)-methyl]-phenoxy}-thieno[3,2-b]pyridine-2-carboxylic acid dimethylamide] returned a Ki in assay [3] of 1 to 10 nM. Further, the inhibition at 0.05 µM in assay [1] was 0 to 5%. The IC50 in assay [2] is more than 10 nM.

With `Cc1cc(C)nc(NC(=O)Cc2ccc(Oc3ccnc4cc(-c5nccn5C)sc34)cc2)c1` [Example 9, N-(4,6-Dimethyl-pyridin-2-yl)-2-{4-[2-(1-methyl-1H-imidazol-2-yl)-thieno[3,2-b]pyridin-7-yloxy]-phenyl}-acetamide], the Ki in assay [3] is less than 1 nM. The inhibition at 0.05 µM in assay [1] lay in the range of 5 to 10%. Moreover, in assay [2], the IC50 was less than 1 nM.

`Cn1ccnc1-c1cc2nccc(Oc3ccc(CC(=O)Nc4ccc(Cl)cn4)cc3)c2s1` [Example 10, N-(5-Chloro-pyridin-2-yl)-2-{4-[2-(1-methyl-1H-imidazol-2-yl)-thieno[3,2-b]pyridin-7-yloxy]-phenyl}-acetamide] came in with a Ki in assay [3] of less than 1 nM. Moreover, the inhibition at 0.05 µM in assay [1] lay in the range of 0 to 5%. Further, in assay [2], the IC50 is less than 1 nM.

As to `Cc1cc(C)nc(NC(=O)Cc2ccc(Oc3ccnc4cc(C(=O)N5CCC5)sc34)cc2)c1` [Example 22, 2-{4-[2-(Azetidine-1-carbonyl)-thieno[3,2-b]pyridin-7-yloxy]-phenyl}-N-(4,6-dimethyl-pyridin-2-yl)-acetamide], the inhibition at 0.05 µM in assay [1] lay within 0 to 5%. Moreover, in assay [2], the IC50 is less than 1 nM.

In the case of `O=C(Cc1ccc(Oc2ccnc3cc(C(=O)N4CCC4)sc23)cc1)Nc1ccc2[nH]ncc2c1` [Example 36, 2-{4-[2-(Azetidine-1-carbonyl)-thieno[3,2-b]pyridin-7-yloxy]-phenyl}-N-(1H-indazol-5-yl)-acetamide], in assay [1], the inhibition at 0.05 µM lay within 0 to 5%. Also, the IC50 in assay [2] is more than 10 nM.

For the compound `O=C(Cc1ccc(Oc2ccnc3cc(C(=O)N4CCC4)sc23)cc1)Nc1ccc(N2CCOCC2)nc1` [Example 38, 2{-4-[2-(Azetidine-1-carbonyl)-thieno[3,2-b]pyridin-7-yloxy]-phenyl}-N-(6-morpholin-4-yl-pyridin-3-yl)-acetamide], the inhibition at 0.05 µM in assay [1] lay in the range of 0 to 5%. Moreover, the IC50 in assay [2] is more than 10 nM.

For the compound `Cc1cc(NC(=O)Cc2ccc(Oc3ccnc4cc(C(=O)N5CCC5)sc34)cc2Cl)nn1C` [Example 56, 2-{4-[2-(Azetidine-1-carbonyl)-thieno[3,2-b]pyridin-7-yloxy]-2-chloro-phenyl}-N-(1,5-dimethyl-1H-pyrazol-3-yl)-acetamide], in assay [1], the inhibition at 0.05 µM was in the range of 0 to 5%. In assay [2], the IC50 was more than 10 nM.

`CNC(=O)C(O)c1ccc(Oc2ccnc3cc(C(=O)N4CC[C@@H](OC)C4)sc23)cc1` (stereo partly drawn) [Example 77, 2-Hydroxy-2-{4-[2-((R)-3-methoxy-pyrrolidine-1-carbonyl)-thieno[3,2-b]pyridin-7-yloxy]-phenyl}-N-methyl-acetamide]: the Ki in assay [3] is more than 10 nM. In addition, the inhibition at 0.05 µM in assay [1] was 0 to 5%.

For `CNC(=O)C(=O)c1ccc(Oc2ccnc3cc(C(=O)N4CC[C@@H](OC)C4)sc23)cc1` [Example 78, 2-{4-[2-((R)-3-Methoxy-pyrrolidine-1-carbonyl)-thieno[3,2-b]pyridin-7-yloxy]-phenyl}-N-methyl-2-oxo-acetamide], the Ki in assay [3] was more than 10 nM. Further, the inhibition at 0.05 µM in assay [1] is more than 10%.

`COC(C(=O)Nc1cc(C)no1)c1ccc(Oc2ccnc3cc(C(=O)N4CCC4)sc23)cc1` (stereo not drawn) [Example 79, 2-{4-[2-(Azetidine-1-carbonyl)-thieno[3,2-b]pyridin-7-yloxy]-phenyl}-2-methoxy-N-(3-methyl-isoxazol-5-yl)-acetamide] had an inhibitory constant (Ki) in assay [3] of more than 10 nM. Besides, the inhibition at 0.05 µM in assay [1] is 0 to 5%.

As to `Cc1cc(NC(=O)C(O)c2ccc(Oc3ccnc4cc(C(=O)N5CCC5)sc34)cc2)on1` (stereo not drawn) [Example 80, 2-{4-[2-(Azetidine-1-carbonyl)-thieno[3,2-b]pyridin-7-yloxy]-phenyl}-2-hydroxy-N-(3-methyl-isoxazol-5-yl)-acetamide], in assay [3], the Ki is more than 10 nM. Moreover, the inhibition at 0.05 µM in assay [1] was in the range of 5 to 10%.

In the case of `CCCCNC(=O)C(O)c1ccc(Oc2ccnc3cc(C(=O)N4CCC4)sc23)cc1` (stereo not drawn) [Example 82, 2-{4-[2-(Azetidine-1-carbonyl)-thieno[3,2-b]pyridin-7-yloxy]-phenyl}-N-butyl-2-hydroxy-acetamide], in assay [3], the inhibition constant (Ki) was more than 10 nM. For the same compound, the inhibition at 0.05 µM in assay [1] fell in the range of 0 to 5%.

Turning to `COC(C(=O)Nc1ccccn1)c1ccc(Oc2ccnc3cc(C(=O)N4CCC4)sc23)cc1` (stereo not drawn) [Example 83, 2-{4-[2-(Azetidine-1-carbonyl)-thieno[3,2-b]pyridin-7-yloxy]-phenyl}-2-methoxy-N-pyridin-2-yl-acetamide], in assay [3], the Ki is more than 10 nM. Also, the inhibition at 0.05 µM in assay [1] is 5 to 10%.

In assay [3], `O=C(Nc1ccccn1)C(O)c1ccc(Oc2ccnc3cc(C(=O)N4CCC4)sc23)cc1` (stereo not drawn) [Example 84, 2-{4-[2-(Azetidine-1-carbonyl)-thieno[3,2-b]pyridin-7-yloxy]-phenyl}-2-hydroxy-N-pyridin-2-yl-acetamide] displayed a Ki of more than 10 nM. In addition, in assay [1], the inhibition at 0.05 µM was 5 to 10%.
